What was measured:
DSS colitis [1] = experiment: DSS colitis, peroral treatment (Prague study, 2nd part, Example 4); assay type: in vivo, BALB/c mice
Description: Fifteen conventional female Balb/c female mice (7 to 9 weeks old) were randomly separated in […] (five mice each). To evaluate the efficacy of per oral treatment, the antigens (full length Mycobacterial HSP70 protein) were administered together with 1 mg of Soybean trypsin inhibitor (SBTI, Sigma) dissolved in 50 μl of 0.15 M sodium bicarbonate, by gavage 4 times in one week interval. After one week the mice received 3% dextran sodium sulphate (DSS) in their drinking water continuously for up to 8 days. Colitis was evaluated on day 36 by a clinical activity score, by colon length and histological score.
• treated: 100 μl of sterile PBS/SBTI intragastrically (Control) Group B2 (HSP60+DSS): • treated: HSP60 30 μg/mouse in 100 μl of sterile PBS/SBTI (1:1) intragastrically Group C2 (HSP70+DSS): • treated: HSP70 30 μg/mouse in 100 μl of sterile PBS/SBTI (1:1) intragastrically Results

DSS colitis [2] = experiment: DSS colitis (Utrecht study, Example 5); assay type: in vivo, BALB/c mice; details: for Colon Length (cm), average: 4 x 30 μg oral gavage, 3% DSS 7 days, n=10
Description: This study is performed with female BALB/c mice aged 7 weeks at the start of the experiment. Groups of mice (n=10) were treated 4 times (days 7, 9, 11, 14) with 30 μg HSP70 in 100 μl PBS (Mt hsp70; batch 031205; 2.1 Endotoxin Units/mg) or vehicle (100 μl PBS), administered via oral gavage. 10 minutes prior to gavage animals received 2 mg soybean trypsin inhibitor (SBTI) in 0.15M sodium bicarbonate, pH 8.0. Colitis was induced by administering drinking water supplemented with 3% DSS during 7 days.
Disease onset was followed by determination of body weight and stool consistency, resulting in clinical state as explained in the table below.
At dissection, colon length was recorded
Colons were cut longitudinally and divided into parts to determine: • histology on formalin-fixed paraffin sections • MPO activity in homogenates (indicative for neutrophilic infiltrations) • Ex-vivo cytokine release (TNFα, IL10) from distal colon sample.
Total score is calculated by the adding the score for each parameter and divided by 3.
Distal colon samples were incubated for 24 h and IL10 content in supernatant was measured using a specific ELISA. IL10 release from distal colon sample in healthy BALB/c mice is 450±328 pg/g colon.

[3] = 30 μg/mouse intragastrically with SBTI, 4 times before 3% DSS, 5 mice
[4] = Multiple Range Tests, * p < 0.05

Substance: HSP70: full length Mycobacterial HSP70 protein (SEQ ID NO: 55)
- Histological grade, Average (DSS colitis [1]; [3]): 1.225
- Weight change, Average (DSS colitis [1]; [3]): −0.44
- Histological grade, Difference (contrast PBS minus treatment) (DSS colitis [1]; Multiple Range Tests): 0.35
- Colon length, Difference (contrast PBS minus treatment) (DSS colitis [1]; [4]): *−1.02
- Weight change, Difference (contrast PBS minus treatment) (DSS colitis [1]; [4]): *−4.62
- symptoms of colitis compared to PBS (DSS colitis [1]; p=0.0057, 0.0387 and 0.0831 for colon length, weight loss and clinical state): significantly mitigates the symptoms of colitis
- Colon Length (cm), average (DSS colitis [2]): 6.8 cm
- Colon Length (cm), average (DSS colitis [2]; listed as HSP70 protein): less decreased
- disease severity (clinical score, disease progression) (DSS colitis [2]; pre-treatment 4 x 30 μg oral gavage): decreased disease severity
